Assay results: patent US20250090510A1, “eIF4G1-eIF1 INHIBITORS AND USE THEREOF” (YEDA RESEARCH AND DEVELOPMENT CO. LTD., priority 2022, published 2025)

System: HEK293T cells
Test: Puromycin labeling (puromycin-incorporation assay)
Assay type: cell-based
Conditions: Homo sapiens, HEK-293T; 3 h treatment, puromycin 10 μg/ml 5 minutes; read-out: IC-50, nascent polypeptide puromycin labeling
Procedure: FIGS. 3A-F: i14G1-10 and i14G1-12 inhibit mRNA translation and sensitize cell survival of eIF4G1 and eIF1 depleted cells. (3A) In-vitro translation using rabbit reticulocyte lysate which was pre-incubated with different concentrations of i14G1-10 or i14G1-12 for 10 minutes followed by the addition of capped firefly luciferase mRNA. After 90 minutes at 30° C., the luminescence signal was measured and the IC50 was calculated. The data represents mean±SEM of 6 independent repeats. (3B) HEK293T cells were treated with DMSO (vehicle control), and sub-cytotoxic concentrations of i14G1-10 (20 μM) and i14G1-12 (10 μM) for 3h. Cell lysates were then subjected to sucrose gradient sedimentation to obtain polysome profiles. (3C) HEK293T cells were treated with the indicated concentrations of i14G1-10 and i14G-12 for 3 h, followed by the addition of puromycin (10 μg/ml) for 5 minutes, after which cells were lysed and analyzed by western blot using an anti-puromycin antibody and anti-GAPDH antibody that serves as a loading control. […] The calculated IC-50 is shown. […] The calculated IC-50 is shown. (3E) The graphs represent cell viability of the indicated cell lines in the presence of increasing concentrations of i14G1-10 and i14G1, analyzed by Luminescent Cell Viability Assay. […]

SMILES | IC50
O=C(/C=C/Sc1ccc(C(F)(F)F)cn1)c1ccccc1 [i14G1-10] | 20.4 µM
Cn1ccnc1S/C(=C/C=C(C#N)C#N)c1ccc(Cl)cc1 [i14G1-12] | 4.96 µM
